Results on 17 compounds are retold here after PubChem BioAssay (NCI).

Among the test systems are NCI-H23 lung; SNB-19 CNS; SK-MEL-28 melanoma; ACHN renal; IGROV1 ovarian; SN12C renal; MDA-MB-435; OVCAR-4 ovarian.
Holding throughout (test): NCI tumour cell line growth inhibition, 48 h

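The compound was tested at five concentrations on cells cultured in 96-well plates, with a 48-hour exposure period. At the GI50, growth is halved. The concentration for full growth arrest is given as TGI.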

For `C=CCNc1nc(O)c(/C=C2\C=Nc3ncccc32)s1`, the GI50 in the assay with NCI-H23 lung was 1.93 µM; with SNB-19 CNS, 2.32 µM; in the assay on SK-MEL-28 melanoma it was 2.52 µM; with ACHN renal it was 2.21 µM; in the assay on IGROV1 ovarian it was 2.86 µM; with SN12C renal, 2.1 µM. Moreover, the GI50 is 1.94 µM in the assay with MDA-MB-435 and 3.03 µM in the assay on OVCAR-4 ovarian. Moreover, the TGI was 6.28 µM with NCI-H23 lung; 7.29 µM with SNB-19 CNS; 9.14 µM in the assay with SK-MEL-28 melanoma; more than 100 µM with ACHN renal; more than 100 µM in the assay with IGROV1 ovarian; 5.52 µM with SN12C renal. In addition, the TGI with MDA-MB-435 is 4.96 µM; in the assay with OVCAR-4 ovarian, 24.9 µM.
As for `Cn1c(=O)c2c(nc3n2CCC(=O)N3CCCCl)n(C)c1=O`, the TGI in the assay with NCI-H23 lung, in the assay on SNB-19 CNS, with SK-MEL-28 melanoma, with ACHN renal, with IGROV1 ovarian and in the assay with SN12C renal was more than 100 µM throughout. The TGI in the assay with MDA-MB-435 and in the assay with OVCAR-4 ovarian was more than 100 µM throughout.
As to `N/C(=N\NC(=O)c1nc2ccccc2s1)c1ccccn1`, the TGI in the assay on NCI-H23 lung is 52.6 µM; in the assay on SNB-19 CNS it was more than 100 µM; with SK-MEL-28 melanoma it was more than 100 µM; in the assay on ACHN renal, 16.5 µM; with IGROV1 ovarian, more than 100 µM; in the assay with SN12C renal it was 18 µM. Moreover, in the assay on MDA-MB-435, the TGI is more than 37.6 µM.
With `Cn1cc(-c2nc(-c3c[nH]c4ccncc34)cs2)c2ccccc21`, the GI50 in the assay with SK-MEL-28 melanoma was 1.71 µM; in the assay on ACHN renal, 1.6 µM; in the assay on SN12C renal, 1.76 µM; in the assay with MDA-MB-435 it was 1.79 µM. Further, the TGI came to 3.14 µM with SK-MEL-28 melanoma, 2.96 µM with ACHN renal, 3.27 µM with SN12C renal and 3.32 µM in the assay with MDA-MB-435.
For the compound `O=C1CCCCC/C1=C\c1cccc([N+](=O)[O-])c1`, the TGI in the assay with SNB-19 CNS is more than 100 µM; with SK-MEL-28 melanoma, more than 100 µM; with ACHN renal it was more than 100 µM; with IGROV1 ovarian, 50.4 µM; with SN12C renal it was more than 100 µM; in the assay on MDA-MB-435, more than 100 µM.
As for `C=CC(C)(C)C1(CC(OC)OC)C(=O)N(C)c2ccccc21` (configuration not stated), the TGI in the assay with NCI-H23 lung, in the assay on SNB-19 CNS, in the assay with SK-MEL-28 melanoma, in the assay with ACHN renal, in the assay with SN12C renal and in the assay with MDA-MB-435 was more than 25 µM in each case. In the assay on OVCAR-4 ovarian, this compound yielded a TGI of more than 25 µM.
On to `O=C(NNS(=O)(=O)c1ccc(Br)cc1)c1ccc(Cl)cc1NC(=O)C12CC3CC(CC(C3)C1)C2`, for which the TGI is 28.2 µM with NCI-H23 lung; 28.7 µM with SNB-19 CNS; 29.7 µM with ACHN renal; 24.7 µM in the assay with IGROV1 ovarian; 36.1 µM with SN12C renal; 25.8 µM in the assay with MDA-MB-435. Moreover, in the assay on OVCAR-4 ovarian, the TGI came out at 23.8 µM.
As to `Cc1ccc2n(c1)cc(-c1ccc(/C=N/NC(=N)N/N=C/c3ccc(-c4cn5cc(C)ccc5[n+]4C)cc3)cc1)[n+]2C`, the TGI in the assay on SNB-19 CNS was more than 100 µM; in the assay with SK-MEL-28 melanoma it was 33.6 µM; in the assay with ACHN renal, more than 100 µM; in the assay on IGROV1 ovarian it was more than 100 µM; with SN12C renal, more than 100 µM; in the assay with MDA-MB-435, more than 100 µM. The compound further showed a TGI in the assay with OVCAR-4 ovarian of more than 100 µM.
Turning to `CCOC(=O)CCC(NC(=O)c1ccc(Nc2nc3cc(C(F)(F)F)ccc3nc2C(=O)OCC)cc1)C(=O)OCC` (configuration not stated), the TGI in the assay with NCI-H23 lung amounted to 39.9 µM; in the assay with SNB-19 CNS, 22.6 µM; with SK-MEL-28 melanoma, 27.9 µM; in the assay with ACHN renal, 26.7 µM; in the assay on IGROV1 ovarian, 43.5 µM; in the assay on SN12C renal, 24.3 µM. Also, in the assay on MDA-MB-435, the TGI turned out to be 21.9 µM.
For the compound `CCCc1n[nH]c(=O)n1N1C(=O)C=CC1=O`, the TGI with NCI-H23 lung, with IGROV1 ovarian, in the assay on SN12C renal, with MDA-MB-435 and with OVCAR-4 ovarian was more than 100 µM in each case.
On to `C/C(=N\NC(=O)CC#N)C(CN1CCCCC1)C(c1ccccc1)c1c(O)c2ccccc2oc1=O` (configuration not stated), for which the TGI in the assay with NCI-H23 lung, with SNB-19 CNS, in the assay on SK-MEL-28 melanoma, with ACHN renal, in the assay on IGROV1 ovarian and in the assay on MDA-MB-435 was more than 100 µM in each case. The same compound had a TGI in the assay on OVCAR-4 ovarian of more than 100 µM.
For the compound `CC(C)(C)c1ccc(O)c(C(c2ccc([N+](=O)[O-])cc2)c2cc(C(C)(C)C)ccc2O)c1`, the TGI in the assay with NCI-H23 lung amounted to 4.23 µM; in the assay with SNB-19 CNS it was 5.36 µM; in the assay on SK-MEL-28 melanoma, 3.72 µM; in the assay on ACHN renal it was 3.3 µM; in the assay with IGROV1 ovarian, 4.37 µM; in the assay on SN12C renal, 4.02 µM. Also, the TGI with OVCAR-4 ovarian came to 3.91 µM.
Regarding `COC(=O)c1ccccc1NC(=S)NN(C)C`, the TGI in the assay with NCI-H23 lung, in the assay on SNB-19 CNS, in the assay on SK-MEL-28 melanoma, with ACHN renal, in the assay with IGROV1 ovarian and in the assay on MDA-MB-435 was more than 100 µM in each case. In the assay on OVCAR-4 ovarian, this compound returned a TGI of more than 100 µM.
On to `Cc1ccc(S(=O)(=O)NC(=O)NCCc2ccc(O)c(O)c2)cc1`, for which the TGI in the assay with NCI-H23 lung, in the assay on SNB-19 CNS, with SK-MEL-28 melanoma, in the assay with ACHN renal, with IGROV1 ovarian and in the assay with MDA-MB-435 was more than 100 µM in each case. In the assay with OVCAR-4 ovarian, the TGI was more than 100 µM.
Consider `COC(=O)[C@H]1[C@@H](O)[C@@]2(O)c3c(OC)cc(OC)cc3O[C@@]2(c2ccc3c(c2)OCO3)[C@@H]1c1ccccc1`, for which the TGI with NCI-H23 lung was 0.823 µM; in the assay on SNB-19 CNS it was 0.00512 µM; with ACHN renal, 0.235 µM; in the assay with IGROV1 ovarian, 0.666 µM; in the assay on SN12C renal it was 1.46 µM; with MDA-MB-435, more than 50 µM. In the assay on OVCAR-4 ovarian, this compound yielded a TGI of more than 10.1 µM.
As to `O=S(c1ccccc1)C1CC2CC3(CCC21O)OCCO3` (configuration not stated), the TGI in the assay with NCI-H23 lung, with SNB-19 CNS, in the assay with SK-MEL-28 melanoma, in the assay with ACHN renal, in the assay with IGROV1 ovarian and in the assay on MDA-MB-435 was more than 100 µM each time. In addition, the TGI with OVCAR-4 ovarian is more than 100 µM.
With `COc1cc(OCc2nc3cc(C(F)(F)F)ccc3nc2-c2ccccc2)cc(OC)c1OC`, the TGI in the assay with NCI-H23 lung, in the assay with SNB-19 CNS, in the assay with SK-MEL-28 melanoma, in the assay with ACHN renal, in the assay with IGROV1 ovarian and with MDA-MB-435 was more than 100 µM in each case. The TGI in the assay with OVCAR-4 ovarian was more than 100 µM.
